Biological target: recombinant human CCR5 receptor (Homo sapiens, UniProt P51681)
Test: MIP-1α radioligand binding assay (scintillation proximity)
Settings: displacement of 0.1 nM iodinated MIP-1α; membranes from Chinese hamster ovary cells expressing recombinant human CCR5; average if tested more than once
Experimental: The ability of compounds to inhibit the binding of MIP-1α was assessed by an in vitro radioligand binding assay. Membranes were prepared from Chinese hamster ovary cells which expressed the recombinant human CCR5 receptor. These membranes were incubated with 0.1 nM iodinated MIP-1α, scintillation proximity beads and various concentrations of the compounds of the invention in 96-well plates. The amount of iodinated MIP-1α bound to the receptor was determined by scintillation counting. Competition curves were obtained for compounds and the concentration of compound which displaced 50% of bound iodinated MIP-1α was calculated (IC50).
In Table X the results are presented as Pic50 values. A Pic50 value is the negative log (to base 10) of the IC50 result, so an IC50 of 1 μM (that is 1×10^−6M) gives a Pic50 of 6. If a compound was tested more than once then the data below is an average of the probative tests results.

recombinant human CCR5 receptor, sequence (P51681 whole entry): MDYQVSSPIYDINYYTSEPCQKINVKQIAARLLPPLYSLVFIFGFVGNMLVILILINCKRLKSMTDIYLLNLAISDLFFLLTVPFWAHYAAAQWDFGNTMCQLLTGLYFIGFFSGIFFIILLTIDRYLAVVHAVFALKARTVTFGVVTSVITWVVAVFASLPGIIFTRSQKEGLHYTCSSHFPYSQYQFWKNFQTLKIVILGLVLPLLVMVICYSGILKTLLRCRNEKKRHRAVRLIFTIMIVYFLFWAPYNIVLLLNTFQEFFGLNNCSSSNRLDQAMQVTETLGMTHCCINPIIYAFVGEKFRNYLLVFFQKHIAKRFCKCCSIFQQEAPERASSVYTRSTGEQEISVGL

## COc1ccc(S(=O)(=O)CCC2(C)CCN(CC[C@@H](c3cc(F)cc(F)c3)N3CCN(S(C)(=O)=O)CC3)CC2)cc1 [Table II Compound 20, 1-[(1S)-1-(3,5-difluorophenyl)-3-(4-{2-[(4-methoxyphenyl)sulfonyl]ethyl}-4-methylpiperidin-1-yl)propyl]-4-(methylsulfonyl)piperazine]
  IC50: 5.01 nM

## CC1(CCS(=O)(=O)c2ccc(S(C)(=O)=O)cc2)CCN(CC[C@@H](c2ccccc2)N2CCN(S(C)(=O)=O)CC2)CC1 [Table II Compound 18, 1-{(1S)-3-[4-methyl-4-(2-{[4-(methylsulfonyl)phenyl]sulfonyl}ethyl)piperidin-1-yl]-11-phenylpropyl)-4-(methylsulfonyl)piperazine]
  IC50: 0.631 nM

## CC1(CCS(=O)(=O)c2ccc(S(C)(=O)=O)cc2)CCN(CC[C@@H](c2cc(F)cc(F)c2)N2CCN(S(C)(=O)=O)CC2)CC1 [Table II Compound 19, 1-{(1S)-1-(3,5-difluorophenyl)-3-[4-methyl-4-(2-{[4-(methylsulfonyl)phenyl]sulfonyl}ethyl)piperidin-1-yl]propyl}-4-(methylsulfonyl)piperazine]
  IC50: 2 nM

## CC1(CCS(=O)(=O)C2CCN(C(=O)OCc3ccccc3)CC2)CCN(CC[C@@H](c2cc(F)cc(F)c2)C2CCN(S(C)(=O)=O)CC2)CC1 [Table VIII Compound 1, benzyl 4-{[2-(1-{(3R)-3-(3,5-difluorophenyl)-3-[1-(methylsulfonyl)piperidin-4-yl]propyl}-4-methylpiperidin-4-yl)ethyl]sulfonyl}piperidine-1-carboxylate]
  IC50: 7.94 nM

## CC1(CCS(=O)(=O)c2ccc(S(C)(=O)=O)cc2)CCN(CC[C@H](c2ccc(S(C)(=O)=O)cc2)c2cc(F)cc(F)c2)CC1 [Table I Compound 1, 1-{(3R)-3-(3,5-difluorophenyl)-3-[4-(methylsulfonyl)phenyl]propyl}-4-methyl-4-(2-{[4-(methylsulfonyl)phenyl]sulfonyl}ethyl)piperidine]
  IC50: 0.251 nM

## CC1(CCS(=O)(=O)C2CCN(S(C)(=O)=O)CC2)CCN(CC[C@@H](c2cc(F)cc(F)c2)C2CCN(S(C)(=O)=O)CC2)CC1 [Table VIII Compound 2, 1-{(3R)-3-(3,5-difluorophenyl)-3-[1-(methylsulfonyl)piperidin-4-yl]propyl}-4-methyl-4-(2-{[1-(methylsulfonyl)piperidin-4-yl]sulfonyl}ethyl)piperidine]
  IC50: 2 nM

Source: patent publication US20080021038A1, “Novel Piperidine/8-Azabicyclo [3.2.1.] Octan Derivatives As Modulators Of Chemokine Receptor Ccr5” (priority 2004, published 2008)
